Experimental data reported in article PMC3848335, “Structure–Activity Relationships and Molecular Modeling of Sphingosine Kinase Inhibitors” (Journal of Medicinal Chemistry, 2013).
“Also recorded” adds a separate entry of the source.

Tests used:
SK1 [1] = target: T1, SK1 (Homo sapiens, UniProt Q9NYA1); experiment: SK1 activity assay (inhibition; [γ-32P]ATP, recombinant SK1 in HEK 293 cell lysates); assay type: biochemical; set-up: made in house; host or cells: HEK 293 cells (lysate, not purified); conditions: for SK1 inhibition (in words): 3 μM Sph, 250 μM ATP (Figure 3); for isoform selectivity SK1 vs SK2 (in words): comparison of inhibition of SK1 (3 μM Sph) and SK2 (10 μM Sph)
T1 sequence (Q9NYA1 whole entry, canonical isoform): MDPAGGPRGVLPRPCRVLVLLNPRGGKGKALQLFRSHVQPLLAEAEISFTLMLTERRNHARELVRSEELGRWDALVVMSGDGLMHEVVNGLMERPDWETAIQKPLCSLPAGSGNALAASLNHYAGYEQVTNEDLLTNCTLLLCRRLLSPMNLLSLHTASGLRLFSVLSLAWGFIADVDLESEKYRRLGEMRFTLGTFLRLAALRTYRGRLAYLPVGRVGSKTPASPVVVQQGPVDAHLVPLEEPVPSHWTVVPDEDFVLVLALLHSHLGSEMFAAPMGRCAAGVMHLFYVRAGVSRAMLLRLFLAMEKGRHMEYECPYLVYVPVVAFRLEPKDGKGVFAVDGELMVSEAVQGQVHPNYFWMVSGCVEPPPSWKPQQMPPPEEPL

SK2 [2] = target: T2, SK2 (Homo sapiens, UniProt Q9NRA0); experiment: Evaluation of compounds as putative substrates of SK2 (absence of Sph); conditions: 50 μM compound, 250 μM ATP, absence of Sph (Fig. S1)
T2 sequence (Q9NRA0 1-654): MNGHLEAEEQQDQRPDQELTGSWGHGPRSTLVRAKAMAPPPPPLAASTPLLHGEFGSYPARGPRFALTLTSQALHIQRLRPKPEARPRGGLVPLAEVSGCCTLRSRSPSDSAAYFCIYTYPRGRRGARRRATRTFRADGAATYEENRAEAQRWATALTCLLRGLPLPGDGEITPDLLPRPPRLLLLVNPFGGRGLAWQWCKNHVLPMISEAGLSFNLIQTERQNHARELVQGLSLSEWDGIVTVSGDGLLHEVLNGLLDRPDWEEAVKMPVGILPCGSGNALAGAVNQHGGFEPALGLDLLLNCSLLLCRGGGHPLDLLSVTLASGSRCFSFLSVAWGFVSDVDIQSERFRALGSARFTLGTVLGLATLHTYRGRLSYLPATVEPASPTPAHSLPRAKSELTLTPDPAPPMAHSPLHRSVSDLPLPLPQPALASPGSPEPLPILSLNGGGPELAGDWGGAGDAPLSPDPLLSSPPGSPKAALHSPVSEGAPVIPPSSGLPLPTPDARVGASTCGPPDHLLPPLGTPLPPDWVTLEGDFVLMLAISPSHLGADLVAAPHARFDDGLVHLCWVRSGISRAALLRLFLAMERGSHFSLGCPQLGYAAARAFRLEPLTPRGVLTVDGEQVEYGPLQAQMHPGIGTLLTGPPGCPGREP

SK2 [3] = target: T2, SK2; experiment: SK2 activity assay (inhibition; [γ-32P]ATP, purified SK2); assay type: biochemical; conditions: 50 μM compound, 10 μM Sph, 250 μM ATP (Figure 3)
Description: To examine SAR among a panel of related compounds, we prepared a series of analogues bearing a 4-hydroxypiperidinyl group but varied the linker length between the aryl group and the piperidine. We also assessed the role of the alkyl substituent in the aryl group.
Figure 3 Effect of inhibitors on SK1 or SK2 activity. SK1 activity was measured using 3 μM Sph and 250 μM ATP. SK2 activity was assayed using 10 μM Sph and 250 μM ATP (n = 3 for each compound; results are expressed as % of control ± SD). […]. The control is 100% and equals activity against Sph alone.
Sphingosine kinase activity assays.
For SK2 activity assays, sphingosine (Sph) was complexed with fatty acid free bovine serum albumin (final concentration, 0.2 mg/mL) in reaction buffer 1 containing 20 mM Tris (pH 7.4), 1 mM EDTA, 1 mM Na3VO4, 40 mM β−glycerophosphate, 1 mM NaF, 0.007% (v/v) β6mercaptoethanol, 20% (v/v) glycerol, 10 µg/mL aprotinin, 10 µg/mL soybean trypsin inhibitor, 1 mM PMSF, 0.5 mM 46 deoxypyridoxine, and 400 mM KCl. Inhibition of SK2 activity was determined by incubating 37 ng of purified SK2 for 30 min at 30 °C in the presence of 10 µM Sph, 250 µM of [γ632P]ATP (specific activity, 4.4×10^4 cpm/nmol) in 10 mM MgCl2, and varying concentrations of the inhibitors dissolved in DMSO or control (5% v/v DMSO). […]
Compounds bearing hydroxyl groups were assessed for their ability to act as substrates for SK1 and […]

SK1 [4] = target: T1, SK1; experiment: Evaluation of compounds as putative substrates of SK1 (absence of Sph); conditions: 50 μM compound, 250 μM ATP

SK1 inhibition (in words) (SK1 [1]; 50 μM compound)	Compound	also measured
much less active	CCCCCCCCc1ccc(CCN2CCC[C@H]2CO)cc1 [RB-041, (S)-(1-(4-Octylphenethyl)pyrrolidin-2-yl)methanol]	substrate for SK2 (in words) (SK2 [2]): weak substrates for SK2
reduced SK1 inhibition markedly	Cc1ccc(CCN2CCC(N=[N+]=[N-])CC2)cc1 [RB-029, 4-Azido-1-(4-methylphenethyl)piperidine]	–
ineffective as SK inhibitors	CCCCCc1cn(-c2ccc(CC[N+]3(C)CCCCC3)cc2)nn1.CS(=O)(=O)[O-] [RB-061, 1-Methyl-1-(4-(4-pentyl-1H-1,2,3-triazol-1-yl)phenethyl)piperidinium Methanesulfonate]	–
–	CCCCCCCCc1ccc(CCN2CCC[C@@H]2CO)cc1 [RB-040, (R)-(1-(4-Octylphenethyl)pyrrolidin-2-yl)methanol]	isoform selectivity SK1 vs SK2 (in words) (SK1 [1]): equipotent inhibitors of SK1 and SK2
maintained inhibition of SK1	CCCCCCCCc1ccc(CCN2CCC(=O)CC2)cc1 [RB-035, 1-(4-Octylphenethyl)piperidin-4-one]	SK2 inhibition (in words) (SK2 [3]): increased inhibition of SK2; isoform selectivity SK1 vs SK2 (in words) (SK1 [1]): eliminated the isoform selectivity
–	CCCCCCCCCCCCc1ccc(CCN2CCC[C@@H]2CO)cc1 [RB-042, (R)-(1-(4-Dodecylphenethyl)pyrrolidin-2-yl)methanol]	isoform selectivity SK1 vs SK2 (in words) (SK1 [1]): equipotent inhibitors of SK1 and SK2
ineffective as SK inhibitors	1-Methyl-4-(4-octylphenethyl)pyridinium Iodide [RB-052]	–
reduced SK1 inhibition markedly	CCCCCCCCc1ccc(CCN2CCC(N=[N+]=[N-])CC2)cc1 [RB-030, 4-Azido-1-(4-octylphenethyl)piperidine]	–
did not significantly alter	CCCCCCCCc1ccc(CCCCN2CCC(O)CC2)cc1 [RB-025, 1-(4-(4-Octylphenyl)butyl)piperidin-4-ol]	substrate for SK1 (in words) (SK1 [4]): not substrates for SK1
ineffective as SK inhibitors	CCCCc1cn(-c2ccc(CC[N+]3(C)CCCCC3)cc2)nn1.CS(=O)(=O)[O-] [RB-060, 1-(4-(4-Butyl-1H-1,2,3-triazol-1-yl)phenethyl)-1-methylpiperidinium Methanesulfonate]	–
ineffective as SK inhibitors	CCCCCCCCc1cn(-c2ccc(CC[N+]3(C)CCCCC3)cc2)nn1.CS(=O)(=O)[O-] [RB-062, 1-Methyl-1-(4-(4-octyl-1H-1,2,3-triazol-1-yl)phenethyl)piperidinium Methanesulfonate]	–
–	CCCCCCCCc1cn(-c2ccc(CCN3CCC(O)CC3)cc2)nn1 [RB-065]	isoform selectivity SK1 vs SK2 (in words) (SK1 [1]): highly selective SK1 inhibitor
did not significantly alter	CCCCCCCCc1ccc(CCCN2CCC(O)CC2)cc1 [RB-024, 1-(3-(4-Octylphenyl)propyl)piperidin-4-ol]	–
–	CCCCCCCCCCCCc1ccc(CCN2CCC(O)CC2)cc1 [RB-028, 1-(4-Dodecylphenethyl)piperidin-4-ol]	substrate for SK1 (in words) (SK1 [4]): not substrates for SK1
did not significantly alter	CCCCCCCCc1ccc(CN2CCC(O)CC2)cc1 [RB-023, 1-(4-Octylbenzyl)piperidin-4-ol]	–
ineffective as SK inhibitors	CCCCCCCCc1ccc(C[n+]2ccc(N3CCC(C)CC3)cc2)cc1.[Br-] [RB-053, 4-(4-Methylpiperidin-1-yl)-1-(4-octylbenzyl)pyridinium Bromide]	isoform selectivity SK1 vs SK2 (in words) (SK1 [1]): moderate selectivity for SK2
diminished the potency of SK1 inhibition	CCCCCCCCc1ccc(CCN2CCC(N)CC2)cc1 [RB-032, 1-(4-Octylphenethyl)piperidin-4-amine]	isoform selectivity SK1 vs SK2 (in words) (SK1 [1]): isoform selectivity of SK1 over SK2 was retained
effectively abolished	CCCCCCCCc1ccc(C(=O)NCc2ccncc2)cc1 [RB-048, 4-Octyl-N-(pyridin-4-ylmethyl)benzamide]	–
abolished	Cc1ccc(CCN2CCC[C@@H]2CO)cc1 [RB-039, (R)-(1-(4-Methylphenethyl)pyrrolidin-2-yl)methanol]	–

Compound	SK1 inhibition (in words) (SK1 [1]; 50 μM compound)	also measured
4-(4-Octylphenethyl)pyridine [RB-051]	effectively abolished	–
Cc1ccc(CCN2CCC(N)CC2)cc1 [RB-031, 1-(4-Methylphenethyl)piperidin-4-amine]	eliminated the inhibitory activity toward SK1	–
Cc1ccc(CCN2CCC(O)CC2)cc1 [RB-026, 1-(4-Methylphenethyl)piperidin-4-ol]	almost complete lack of inhibition	decrease of SK1 inhibition compared with RB-023 (SK1 [1]; 50 μM compound): more than 6 fold
CCCCCCCCc1ccc(CCN2CC[C@H](O)C2)cc1 [RB-037, (S)-1-(4-Octylphenethyl)pyrrolidin-3-ol]	retained inhibitory activity against SK1	substrate for SK2 (in words) (SK2 [2]): weak substrates for SK2
CCCCCCCCCCCCc1ccc(CCN2CCC[C@H]2CO)cc1 [RB-043, (S)-(1-(4-Dodecylphenethyl)pyrrolidin-2-yl)methanol]	much less active; also recorded: abolished	substrate for SK2 (in words) (SK2 [2]): weak substrates for SK2
CCCCCCCCCCCCc1ccc(CCN2CCC(N)CC2)cc1 [RB-033, 1-(4-Dodecylphenethyl)piperidin-4-amine]	eliminated the inhibitory activity toward SK1	–
CCCCCCCCc1ccc(CCN2CC[C@@H](O)C2)cc1 [RB-038, (R)-1-(4-Octylphenethyl)pyrrolidin-3-ol]	retained inhibitory activity against SK1	–
CCCCCCCCc1ccc(CCN2CCC(OC)CC2)cc1 [RB-036, 4-Methoxy-1-(4-octylphenethyl)piperidine]	eliminated inhibitory activity against SK1	–
CCCCCCCCc1ccc(CCN2CCC(F)CC2)cc1 [RB-034, 4-Fluoro-1-(4-octylphenethyl)piperidine]	eliminated inhibitory activity against SK1	–
